Experiments:
[1] = target: T1, Adenosine receptor A2b (Homo sapiens) (UniProt P29275); experiment: Displacement of [3H]PSB-603 from human A2B receptor expressed in CHO cell membranes at 1 uM measured after 3 hrs by radioligand binding assay relative to control; conditions: Membrane
T1 sequence (whole entry): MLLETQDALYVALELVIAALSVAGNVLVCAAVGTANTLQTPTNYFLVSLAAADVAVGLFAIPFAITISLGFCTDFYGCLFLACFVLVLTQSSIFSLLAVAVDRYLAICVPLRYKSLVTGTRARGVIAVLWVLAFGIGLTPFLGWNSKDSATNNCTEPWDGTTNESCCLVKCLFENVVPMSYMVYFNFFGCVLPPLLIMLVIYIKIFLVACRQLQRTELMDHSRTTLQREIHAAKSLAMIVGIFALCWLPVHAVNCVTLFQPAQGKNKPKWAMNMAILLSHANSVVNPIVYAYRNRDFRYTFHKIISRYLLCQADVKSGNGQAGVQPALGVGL

Adenosine receptor A1 = target: T2, Adenosine receptor A1 (Homo sapiens, UniProt P30542)
T2 sequence (P30542 whole entry): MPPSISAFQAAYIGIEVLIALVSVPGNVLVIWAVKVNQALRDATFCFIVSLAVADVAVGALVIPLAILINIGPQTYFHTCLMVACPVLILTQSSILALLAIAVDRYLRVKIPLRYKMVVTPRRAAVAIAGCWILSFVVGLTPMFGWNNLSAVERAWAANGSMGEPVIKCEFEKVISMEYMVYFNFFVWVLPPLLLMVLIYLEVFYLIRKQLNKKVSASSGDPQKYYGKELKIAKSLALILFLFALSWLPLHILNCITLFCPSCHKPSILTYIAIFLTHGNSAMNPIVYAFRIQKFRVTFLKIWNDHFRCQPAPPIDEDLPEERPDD

Adenosine receptor A2a [2] = target: T3, Adenosine receptor A2a (Homo sapiens, UniProt P29274)
T3 sequence (P29274 whole entry): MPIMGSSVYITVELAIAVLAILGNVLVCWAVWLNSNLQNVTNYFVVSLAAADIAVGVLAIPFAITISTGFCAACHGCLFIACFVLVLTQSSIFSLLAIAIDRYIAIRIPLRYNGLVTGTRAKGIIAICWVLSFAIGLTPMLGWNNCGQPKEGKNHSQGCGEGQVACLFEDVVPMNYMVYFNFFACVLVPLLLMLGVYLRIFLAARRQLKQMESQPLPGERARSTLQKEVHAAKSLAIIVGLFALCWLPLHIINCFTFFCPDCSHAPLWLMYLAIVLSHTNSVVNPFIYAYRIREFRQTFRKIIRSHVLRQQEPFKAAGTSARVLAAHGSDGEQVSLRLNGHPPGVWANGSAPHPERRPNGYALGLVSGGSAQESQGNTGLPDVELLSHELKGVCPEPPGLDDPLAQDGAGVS
Description: Displacement of [3H]ZM241385 from human A2A receptor expressed in HEK293 cell membranes measured after 3 hrs by radioligand binding assay

Adenosine receptor A2a [3] = target: T3, Adenosine receptor A2a; remark: listed apart in the source
Adenosine receptor A2b = target: T4, Adenosine receptor A2b (Homo sapiens, UniProt P29275)
T4 sequence (P29275 whole entry): T1 sequence (whole entry)

[4] = target: T5, Adenosine receptor A1 (Homo sapiens) (UniProt P30542); experiment: Displacement of [3H]DPCPX from human A1 receptor expressed in CHO cell membranes at 10 uM measured after 3 hrs by radioligand binding assay relative to control; conditions: Membrane
T5 sequence (whole entry): T2 sequence (P30542 whole entry)

Adenosine receptor A2a [5] = target: T3, Adenosine receptor A2a; experiment: Displacement of [3H]ZM241385 from human A2A receptor expressed in HEK293 cell membranes at 10 uM measured after 3 hrs by radioligand binding assay relative to control; conditions: Membrane
[6] = target: T6, Adenosine receptor A3 (Homo sapiens) (UniProt P0DMS8); experiment: Displacement of [3H]PSB-11 from human A3 receptor expressed in CHO cell membranes at 10 uM measured after 3 hrs by radioligand binding assay relative to control; conditions: Membrane
T6 sequence (whole entry): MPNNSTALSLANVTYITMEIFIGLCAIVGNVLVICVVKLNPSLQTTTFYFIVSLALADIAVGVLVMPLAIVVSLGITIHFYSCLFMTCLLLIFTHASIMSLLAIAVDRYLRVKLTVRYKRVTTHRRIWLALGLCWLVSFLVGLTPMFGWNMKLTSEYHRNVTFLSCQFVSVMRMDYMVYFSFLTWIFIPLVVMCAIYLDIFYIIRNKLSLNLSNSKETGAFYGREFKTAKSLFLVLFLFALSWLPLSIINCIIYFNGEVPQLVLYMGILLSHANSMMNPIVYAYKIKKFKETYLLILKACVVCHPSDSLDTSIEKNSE

Adenosine receptor A3 = target: T7, Adenosine receptor A3 (Homo sapiens, UniProt P0DMS8)
T7 sequence (P0DMS8 whole entry): T6 sequence (whole entry)
Description: Displacement of [3H]PSB-11 from human A3 receptor expressed in CHO cell membranes measured after 3 hrs by radioligand binding assay

| SMILES | Activity [1] | Ki (Adenosine receptor A1) | Activity ([1]; filed as partial agonist) | Ki (Adenosine receptor A2a [2]) | EC50 (Adenosine receptor A2a [3]) | further results |
| --- | --- | --- | --- | --- | --- | --- |
| N#Cc1c(-c2ccccc2)cc(N)nc1SCc1ncc[nH]1 | 37% | 112 nM | – | – | – | – |
| Nc1cc(-c2ccccc2)cc(SCc2ncc[nH]2)n1 | -12% | – | – | – | – | Activity [4]: 12%; Activity (Adenosine receptor A2a [5]): -17%; Activity [6]: 46% |
| Nc1nc(SCc2ncc[nH]2)nc(-c2ccccc2)n1 | 2% | 288 nM | – | 562 nM | 813 nM | – |

Second part, led by results:

| Activity [1] | Ki (Adenosine receptor A1) | Activity ([1]; filed as partial agonist) | Ki (Adenosine receptor A2a [2]) | EC50 (Adenosine receptor A2a [3]) | SMILES | further results |
| --- | --- | --- | --- | --- | --- | --- |
| – | 69.2 nM | 50% | 10 nM | 44.7 nM | N#Cc1c(SCc2ncc[nH]2)nc(N)nc1-c1ccccc1 | – |
| – | 417 nM | – | – | – | N#Cc1c(-c2ccccc2)cc(SCc2ncc[nH]2)nc1N | Ki (Adenosine receptor A2b): 372 nM |
| – | 85.1 nM | 51% | – | – | N#Cc1c(N)nc(SCc2ncc[nH]2)nc1-c1ccccc1 | Ki (Adenosine receptor A3): 347 nM |

Reference: ChEMBL document CHEMBL5038576 (J Med Chem, 2021)
